Converted amounts (≈) assume the structure as drawn. Square brackets hold non-standard residues; d marks the D form. Peptide text beside a SMILES is read from it. Orn = NCCC[C@H](N)C(=O)O
What was measured:
S. aureus USA300 = experiment: microbe, parasite or virus in culture; type: cell-based, Staphylococcus aureus
Source text: The bacterial strains used include the Gram-positive strains Staphylococcus aureus USA300 LAC, S. epidermidis 1457, and Bacillus subtilis 168, as well as the Gram-negative isolates Escherichia coli K12 and Acinetobacter baumannii B2367-12. Additional, drug resistance strains include Gram-positive Enterococcus faecium V286-17 (VRE) and S. aureus M838-17 (MRSA) and Gram-negative E. coli E423-17, E. coli E416-17 (ampC), and P. aeruginosa E411-17. Bacteria were cultivated in tryptic soy broth (TSB) (BD Bioscience, MD).
(§1) The antibacterial activity of peptides was evaluated using a standard broth microdilution protocol with minor modifications as described (Mishra, et al. (2012) J. Am. Chem. Soc., 134:12426-12429). In brief, logarithmic phase bacterial cultures (i.e., optical density at 600 nm≈0.5) were diluted to OD600 0.001 and partitioned into a 96-well polystyrene microplate at 90 μL per well. After treatment with 10 μL of peptide solutions two fold diluted to various concentrations, microplates were incubated at 37° C. overnight and read on a ChroMate® 4300 Microplate Reader at 630 nm (GMI, Ramsey, MN). […] To study the influence of medium conditions on the antimicrobial activity of peptides against S. aureus USA300, up to 200 mM sodium chloride (NaCl), 2 mM of calcium chloride, 5-10% of human serum, mouse plasma, fluid, or supernatants of tissue homogenates were included into the assays.
(§2) The bacterial strains used include the Gram-positive bacteria methicillin-resistant Staphylococcus aureus USA300, Enterococcus faecium V286-17 (VRE), S. aureus M838-17 (MRSA) and Gram-negative bacteria E. coli E423-17, E416-7 (ampC), P. aeruginosa E411-17, PA01, K. pneumoniae E406-17, ATCC13883, and A. baumannii B26-16. Bacteria were cultivated in tryptic soy broth (TSB) from BD Bioscience.
(§3) The antibacterial activity of peptides was evaluated using a standard broth microdilution protocol with minor modifications (Mishra, et al. (2017) Acta Biomater., 49:316-328). In brief, logarithmic phase bacterial cultures (i.e., optical density at 600 nm≈0.5) were diluted to 0.001 OD and aliquoted 90 μL per well into a 96-well polystyrene microplate. Added 10 μL peptides per well with various concentrations, plates were incubated at 37° C., overnight. Post incubation the plates are read at 630 nm using a ChroMate® Microplate Reader (GMI). […] To study the influence of medium conditions on the antimicrobial activity of peptides against S. aureus USA300 at different pHs (6.8, 7.2, and 8.0), 150 mM sodium chloride (NaCl), 5-10% of human serum, mouse plasma, and peritoneal fluid were included into the assays.

P. aeruginosa PAO1 = type: cell-based, Pseudomonas aeruginosa; conditions: PAO1
Method: as §1, §2, §3

E. coli ATCC 25922 = type: cell-based, Escherichia coli; conditions: ATCC 25922
Method: as §1, §3

Hemolytic assay = type: cell-based, human; conditions: human, human red blood cells, 2% (v/v)
Method: (§4) Briefly, human red blood cells (hRBCs) were washed three times with phosphate buffer saline (PBS) and diluted to a 2% solution (v/v). After peptide treatment, incubation at 37° C. for one hour, and centrifugation at 5000 rpm for 10 minutes, aliquots of the supernatant were carefully transferred to a fresh 96-well microplate. The amount of hemoglobin released was measured at 545 nm. The percent lysis was calculated by assuming 100% release when human blood cells were treated with 2% Triton™ X-100, and 0% release when incubated with PBS buffer. The peptide concentration that caused 50% lysis of hRBCs is defined as HL50. The cell selectivity index (CSI) was calculated as the ratio between HL50 and MIC of the corresponding peptide against a select pathogenic species.
(§5) Hemolytic assays of peptides were performed as described (Mishra, et al. (2017) Acta Biomater., 49:316-328). Briefly, human red blood cells (hRBCs) obtained from UNMC Blood Bank. The blood washed 3× with isotonic saline (0.9% NaCl) and diluted to 2% blood cells (v/v). Peptide horine and verine at various concentrations were added into the 2% blood cells and incubated at 37° C. for 1 hour. Post incubation the plates were spun at 2000 rpm for 10 minutes, aliquots of the supernatant were carefully transferred to a fresh 96-well microplate. The amount of cells lysed is proportional to the hemoglobin released and measured at 545 nm using a ChroMate® microplate reader. The percent lysis was calculated by assuming 100% release when human blood cells were treated with 1% Triton™ X-100, and 0% release when incubated with PBS. The peptide concentration that caused 50% lysis of hRBCs is defined as HL50.

K. pneumoniae ATCC 13883 = type: cell-based, Klebsiella pneumoniae; conditions: ATCC 13883
Method: as §1, §2, §3

[1] = tested on: human red blood cells (hRBCs); experiment: Hemolytic assay; type: cell-based
Method: as §4, §5

[2] = tested on: Klebsiella pneumoniae clinical strains; experiment: microbe, parasite or virus in culture; conditions: Klebsiella pneumoniae
Method: as §3

Compound	MIC S. aureus USA 300 (S. aureus USA300; USA300) [µM]	MIC P. aeruginosa PAO1 (P. aeruginosa PAO1) [µM]	MIC E. coli ATCC 25922 (E. coli ATCC 25922) [µM]	MIC K. pneumoniae (K. pneumoniae ATCC 13883) [µM]	HL50 [1] [µM]	further results
CC(C)C[C@H](NC(=O)[C@H](CC(C)C)NC(=O)[C@H](CCCCN)NC(=O)CNC(=O)[C@H](CC(C)C)NC(=O)[C@H](CC(C)C)NC(=O)[C@H](CO)NC(=O)[C@H](CC(C)C)NC(=O)[C@H](CC(C)C)NC(=O)[C@H](CC(C)C)NC(=O)[C@H](CO)NC(=O)[C@H](CC(C)C)NC(=O)CN)C(N)=O [DFT502, GLSLLLSLLGKLL] (H-GLSLLLSLLGKLL-NH2; N-terminus and C-terminus assumed)						MIC SA (S. aureus USA300) (S. aureus USA300; USA300): 1.6 µM (≈ 2.14 µg/mL); MIC PA (P. aeruginosa PAO1) (P. aeruginosa PAO1): >25 µM; MIC EC (E. coli ATCC 25922) (E. coli ATCC 25922): >25 µM; HC50 at 1 h (Hemolytic assay): 3.1 µM
CC(C)C[C@H](NC(=O)[C@H](CC(C)C)NC(=O)[C@H](CCCN)NC(=O)CNC(=O)[C@H](CC(C)C)NC(=O)[C@H](C)NC(=O)[C@H](CCCN)NC(=O)[C@H](CC(C)C)NC(=O)[C@H](C)NC(=O)[C@H](CO)NC(=O)[C@H](CC(C)C)NC(=O)[C@H](CC(C)C)NC(=O)CN)C(N)=O [DFT516, GLLSALOALGOLL] (H-GLLSAL[Orn]ALG[Orn]LL-NH2; N-terminus assumed)	1.56 (≈ 1.98 µg/mL)	>25	3.1 to 6.25	3.1 (≈ 3.93 µg/mL)	36	
CC(C)C[C@H](NC(=O)[C@H](CC(C)C)NC(=O)[C@H](CCCCN)NC(=O)CNC(=O)[C@H](CC(C)C)NC(=O)[C@H](CO)NC(=O)[C@H](CC(C)C)NC(=O)[C@H](CO)NC(=O)[C@H](CC(C)C)NC(=O)[C@H](CC(C)C)NC(=O)CN)C(N)=O [DFT524, GLLSL-SL-GKLL] (H-GLLSLSLGKLL-NH2; N-terminus and C-terminus assumed)	>25	>25	>25		>300	MIC K. pneumonia ATCC 13883 (K. pneumoniae ATCC 13883): >25 µM
CC(C)C[C@H](NC(=O)[C@H](CC(C)C)NC(=O)[C@H](CCCCN)NC(=O)CNC(=O)[C@H](CC(C)C)NC(=O)[C@H](C)NC(=O)[C@H](CCCCN)NC(=O)[C@H](CC(C)C)NC(=O)[C@H](C)NC(=O)[C@H](CO)NC(=O)[C@H](CC(C)C)NC(=O)[C@H](C)NC(=O)CN)C(N)=O [DFT528, GALSALKALGKLL] (H-GALSALKALGKLL-NH2; N-terminus assumed)	25 (≈ 31.3 µg/mL)	>25	25 (≈ 31.3 µg/mL)	>25	>50	MIC against S. aureus (S. aureus USA300; USA300): 12.5 to 25 µM
CC(C)C[C@H](NC(=O)[C@H](C)NC(=O)[C@H](CCCCN)NC(=O)CNC(=O)[C@H](CC(C)C)NC(=O)[C@H](C)NC(=O)[C@H](CCCCN)NC(=O)[C@H](CC(C)C)NC(=O)[C@H](C)NC(=O)[C@H](CO)NC(=O)[C@H](CC(C)C)NC(=O)[C@H](CC(C)C)NC(=O)CN)C(N)=O [DFT529, GLLSALKALGKAL] (H-GLLSALKALGKAL-NH2; N-terminus assumed)	75 (≈ 94 µg/mL)	>25	25 (≈ 31.3 µg/mL)	>25	>50	MIC against S. aureus (S. aureus USA300; USA300): 12.5 to 25 µM
CC(C)C[C@H](NC(=O)[C@H](CC(C)C)NC(=O)[C@H](CCCCN)NC(=O)[C@H](CC(C)C)NC(=O)CNC(=O)[C@H](CC(C)C)NC(=O)[C@H](CCCCN)NC(=O)[C@H](CC(C)C)NC(=O)[C@H](CC(C)C)NC(=O)[C@H](CC(C)C)NC(=O)[C@H](CO)NC(=O)[C@H](CC(C)C)NC(=O)CN)C(N)=O [DFT562, GLSLLLKLGLKLL] (H-GLSLLLKLGLKLL-NH2; N-terminus and C-terminus assumed)						MIC PA (P. aeruginosa PAO1) (P. aeruginosa PAO1): >25 µM; MIC EC (E. coli ATCC 25922) (E. coli ATCC 25922): >25 µM; HC50 at 1 h (Hemolytic assay): < 25 µM
CN(C)c1cc(NC(=O)CNC(C)(C)C)c(O)c2c1C[C@H]1C[C@H]3[C@H](N(C)C)C(O)=C(C(N)=O)C(=O)[C@@]3(O)C(O)=C1C2=O [Tigecycline, reference compound]						MIC ([2]; strain KP-231-18): 4 µM (≈ 2.34 µg/mL); MIC ([2]; strain KP-232-18): 8 µM (≈ 4.69 µg/mL); MIC ([2]; strain KP-245-18): 4 µM (≈ 2.34 µg/mL); MIC ([2]; strain KP-249-18): 2 µM (≈ 1.17 µg/mL); MIC ([2]; strain KP-253-18): 2 µM (≈ 1.17 µg/mL); MIC ([2]; strain KP-256-18): 4 µM (≈ 2.34 µg/mL); MIC ([2]; strain KP-257-18): 8 µM (≈ 4.69 µg/mL); MIC ([2]; strain KP-262-18): 4 µM (≈ 2.34 µg/mL); MIC ([2]; strain KP-270-18): 4 µM (≈ 2.34 µg/mL); MIC ([2]; strain KP-B42-15): < 2 µM; MIC ([2]; strain KP-B53-15): 2 µM (≈ 1.17 µg/mL); MIC ([2]; strain KP-B73-15): 2 µM (≈ 1.17 µg/mL); MIC ([2]; strain KP-B77-15): < 2 µM; MIC ([2]; strain KP-B1725-18): 2 µM (≈ 1.17 µg/mL)

Second part, led by results:

MIC S. aureus USA 300 (S. aureus USA300; USA300) [µM]	MIC P. aeruginosa PAO1 (P. aeruginosa PAO1) [µM]	MIC E. coli ATCC 25922 (E. coli ATCC 25922) [µM]	MIC K. pneumoniae (K. pneumoniae ATCC 13883) [µM]	Compound	HL50 [1] [µM]	further results
1.56 (≈ 2 µg/mL)	>25	3.1 (≈ 3.97 µg/mL)	3.1 (≈ 3.97 µg/mL)	CC(C)C[C@H](NC(=O)[C@H](CC(C)C)NC(=O)[C@H](CCCCN)NC(=O)CNC(=O)[C@H](CC(C)C)NC(=O)[C@H](C)NC(=O)[C@H](CCCN)NC(=O)[C@H](CC(C)C)NC(=O)[C@H](C)NC(=O)[C@H](CO)NC(=O)[C@H](CC(C)C)NC(=O)[C@H](CC(C)C)NC(=O)CN)C(N)=O [DFT515, GLLSALOALGKLL] (H-GLLSAL[Orn]ALGKLL-NH2; N-terminus assumed)	36	
>25	>25	>25		CC(C)C[C@H](NC(=O)[C@H](CC(C)C)NC(=O)[C@H](CCCCN)NC(=O)CNC(=O)[C@H](CC(C)C)NC(=O)[C@H](CO)NC(=O)[C@H](CO)NC(=O)[C@H](CC(C)C)NC(=O)[C@H](CC(C)C)NC(=O)CN)C(N)=O [DFT525, GLLS--SL-GKLL] (H-GLLSSLGKLL-NH2; N-terminus and C-terminus assumed)	>300	MIC K. pneumonia ATCC 13883 (K. pneumoniae ATCC 13883): >25 µM
>25	>25	>25		CC(C)C[C@H](NC(=O)[C@H](CC(C)C)NC(=O)[C@H](CCCCN)NC(=O)CNC(=O)[C@H](CC(C)C)NC(=O)[C@H](CO)NC(=O)[C@H](CO)NC(=O)[C@H](CC(C)C)NC(=O)CN)C(N)=O [DFT526, GL-S--SL-GKLL] (H-GLSSLGKLL-NH2; N-terminus and C-terminus assumed)	>300	MIC K. pneumonia ATCC 13883 (K. pneumoniae ATCC 13883): >25 µM
>25	>25	>25	>25	CC(C)C[C@H](NC(=O)[C@H](C)NC(=O)[C@H](CCCCN)NC(=O)CNC(=O)[C@H](CC(C)C)NC(=O)[C@H](C)NC(=O)[C@H](CCCCN)NC(=O)[C@H](CC(C)C)NC(=O)[C@H](C)NC(=O)[C@H](CO)NC(=O)[C@H](CC(C)C)NC(=O)[C@H](C)NC(=O)CN)C(N)=O [DFT530, GALSALKALGKAL] (H-GALSALKALGKAL-NH2; N-terminus assumed)	>100	Antimicrobial activity (S. aureus USA300; at 25 μM): inactive

Reference: patent US12173088B2, “Anti-microbial peptides” (priority 2018, dated 2024)
